This assay has as its target Beta-2 adrenergic receptor (Rattus norvegicus) (UniProt P10608). Nature of the assay: Binding of [3H]dihydroalprenolol to beta-2 adrenergic receptor of rat cerebellar membranes.

Three compounds from BindingDB's records for doi:10.1021/jm990599h (National Institute of Diabetes and Digestive and Kidney …, 2000) can be followed below.

As usually defined, the Ki is a measure of affinity in units of concentration, obtained from inhibition or displacement. A higher Ki goes with a looser hold on the target.

SMILES strings stand for the structures.

Chain of Beta-2 adrenergic receptor (Rattus norvegicus) (P10608 whole entry, looked up): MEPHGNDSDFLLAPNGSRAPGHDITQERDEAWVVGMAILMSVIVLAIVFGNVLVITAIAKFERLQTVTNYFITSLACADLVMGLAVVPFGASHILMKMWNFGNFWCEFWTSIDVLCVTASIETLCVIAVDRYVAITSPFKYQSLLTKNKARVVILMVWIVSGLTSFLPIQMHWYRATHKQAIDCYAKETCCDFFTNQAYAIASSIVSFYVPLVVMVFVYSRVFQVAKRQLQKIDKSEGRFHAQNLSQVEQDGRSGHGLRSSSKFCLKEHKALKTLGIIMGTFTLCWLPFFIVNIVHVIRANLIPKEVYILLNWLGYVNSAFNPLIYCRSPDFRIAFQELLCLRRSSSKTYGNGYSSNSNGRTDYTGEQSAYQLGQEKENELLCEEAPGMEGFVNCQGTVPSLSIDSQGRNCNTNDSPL

Compound `CNCC(O)c1cc(O)c(O)cc1F` (stereo not drawn) [(+/-)4-Fluoro-5-(1-hydroxy-2-methylamino-ethyl)-benzene-1,2-diol] yielded a Ki of 50 µM.
Take `NCCc1ccc(O)c(O)c1`: the affinity corresponds to a Ki of 50 µM.
The result for `CNC[C@H](O)c1cc(O)c(O)cc1F` [(R)4-Fluoro-5-(1-hydroxy-2-methylamino-ethyl)-benzene-1,2-diol] reads 38 µM.
